Assay results as given in patent publication US20100197584A1, “USE OF CURCUMIN TO BLOCK BRAIN TUMOR FORMATION IN MICE” (Research Foundations of the City University of- New York, priority 2007, published 2010).

Test system: normal (non-tumor) brain cells
Assay: Normal brain cell viability (MTT on brain sections)
Type: in vivo
Details: brain sections of untreated mice treated with 1 mM in PBS for one hour; positive control for cell death (FIG. 10)
Protocol: In each experiment, three mice were injected with 200 μl of PBS containing 3% DMSO, and three mice were injected with 200 μl of 667 μM curcumin (as described earlier) through the tail vein on three consecutive days by the method described above. On the fourth day, the mice were perfused with PBS through the heart, and the brains sectioned into 400-μm sections. Similar brain sections were also made from untreated mice which were then treated with 1 mM H2O2 in PBS for one hour, followed by incubation in H2O2-free DTM for three hours. These samples were used as a positive control for cell death.
The sections from each mouse were placed in 400 μl PBS in one well of a 48-well plate (i.e. three wells for three mice) and then treated with 200 μl of MTT (5 mg/ml) per well with gentle mixing at 37° C. for about 2 hours. Subsequently, 800 μl of the lysis buffer was added to each well, and the plate was sealed and incubated overnight at 37° C. with gentle mixing. Three 100-μl portions of the tissue solution obtained were next transferred to three respective wells of a 96-well plate (i.e. three wells per mouse and nine wells for three mice in one group) and absorbance at 570 nm was measured using a 96-well multi scanner auto-reader. Results obtained were normalized to protein levels and then expressed as percent of carrier-treated samples.

OO [H2O2, reference compound]
cell viability in brain slices (MTT activity): dramatic decrease
